Article PMC5916772 (ACS combinatorial science, 2017)

Tests used:
[1] = test system: polyclonal anti-1′Nic antiserum; assay: Competition ELISA of polyclonal anti-1′Nic antiserum on 1′Nic-BSA coated plates; type: binding, mice; details: pooled polyclonal anti-1′Nic antiserum; free HPs as competitors
[2] = test system: monoclonal anti-1′Nic antibody, mAb-5F3; type: binding, mice

HP-IC50/Nic-IC50 ratio, binding activity to antiserum [1] | Structure (SMILES) | HP-IC50/Nic-IC50 ([2]; IC50 ratio of HP-IC50 to IC50 of free nicotine on the same ELISA plate) | IC50 ([2]; read-out: HP-IC50, free HPs as competitors, 1′Nic-BSA coated plates)
close to or larger than 1.0 | O=C(CCCN1CCC[C@H]1c1cccnc1)NC1CCC(C(=O)O)CC1 (stereo partly drawn) [HP 2, 4-(4-((S)-2-(Pyridin-3-yl)pyrrolidin-1-yl)butanamido)-cyclohexanecarboxylic Acid] | – | –
– | CN1CCC[C@H]1c1cccnc1 [free Nic, nicotine] | 1.0 | 1410 ± 250 nM
